# Laboratory results published in patent US12391672B2, “Solid forms comprising (S)-4-(4-(4-(((2-(2,6-dioxopiperidin-3-yl)-1-oxoisoindolin-4-yl)oxy)methyl)benzyl)piperazin-1-yl)-3-fluorobenzonitrile and salts thereof, and compositions comprising and methods of using the same” (Celgene Corporation, priority 2019, dated 2025).
# Where “and” joins values, the source holds several entries; their conditions need not be identical. Equal values may be shown once.
# Assays:
# [1] = test system: non-selective α1 adrenergic receptor; assay: α1 adrenergic receptor binding at 10 μM ([3H]prazosin); conditions: 0.25 nM [3H]prazosin, rat cerebral cortex membranes
# Experimental: (§1) α1 Adrenergic and Dopamine D2 Receptors. Methods: Binding and functional assays for α1 adrenergic and dopamine D2 receptors were performed by Eurofins Cerep according to their methods.
# α1 Adrenergic Receptor. Binding at 10 μM. The binding assay evaluated the affinity of test article for the non-selective α1 adrenergic receptor in rat cerebral cortex. Membrane homogenates of cerebral cortex were incubated in duplicate for 60 minutes at room temperature with 0.25 nM [^3H]prazosin in the absence or presence of test articles at 10 μM. After the incubation period, samples were filtered through glass fiber filters, the filters dried and then counted for radioactivity using a scintillation counter. Results are expressed as mean percent inhibition of control radioligand binding.
# [2] = Thermal treatment / racemization on heating; format: physicochemical
# Experimental: Thermal treatment of solid forms: the following table summarizes two experiments carried out using solvent-free thermal treatment of forms of Compound 1. The goal of these experiments was to determine whether the endotherm at 225° C. observed in many DSC experiments corresponded to the melting of the racemate of Compound 1 or whether it was a polymorphic form of Compound 1. Two experiments involved generation of different solid forms of Compound 1, the amorphous form and Form E. The resulting products were subsequently heated to temperatures where exothermic events had been observed in DSC thermograms. Both experiments confirmed that the racemate was generated by heating.
# Racemization of Compound 1 during the DSC analysis was confirmed by heating the samples to various temperatures and analyzing these samples by a chiral HPLC method as well as by comparison of the melting point with a pure sample of the racemate of Compound 1. Upon heating the sample to 160° C., the chiral purity was essentially unchanged (96.1 area % at 160° C. vs. 97.1% initial). This supports the interpretation of the sharp endotherm seen in the DSC thermogram at about 152.6° C. as the melt of the enantiomer. Between 160-218° C. a gradual conversion of the enantiomer to the racemate occurs along with the recrystallization of the racemate. This explains the unsteady baseline over this temperature range and the small broad endotherm observed at about 197.1° C. […] This melting point matches the peak melting point (about 225.6° C.) of the pure racemate of Compound 1.
# [3] = target: T1, dopamine D2S receptor (Homo sapiens, UniProt P14416); assay: Dopamine D2S receptor binding at 10 μM; conditions: transfected HEK-293 cell membranes, read-out: Dopamine D2S % Inh. (@10 μM)
# T1 construct: host or cells: HEK-293
# T1 sequence (P14416 1-414 isoform P14416-2): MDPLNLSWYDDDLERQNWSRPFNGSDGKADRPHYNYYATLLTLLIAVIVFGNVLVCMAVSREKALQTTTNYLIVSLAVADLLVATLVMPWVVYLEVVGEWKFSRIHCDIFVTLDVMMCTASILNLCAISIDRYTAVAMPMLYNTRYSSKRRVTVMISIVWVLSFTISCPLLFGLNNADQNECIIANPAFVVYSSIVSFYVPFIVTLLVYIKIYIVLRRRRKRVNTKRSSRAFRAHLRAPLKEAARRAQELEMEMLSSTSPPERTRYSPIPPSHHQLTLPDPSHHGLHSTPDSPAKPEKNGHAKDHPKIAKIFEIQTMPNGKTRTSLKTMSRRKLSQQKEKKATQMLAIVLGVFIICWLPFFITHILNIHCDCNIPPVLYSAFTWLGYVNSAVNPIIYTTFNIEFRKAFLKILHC
# Experimental: as §1
# Dopamine D2 Receptor. Binding at 10 μM. The binding assay evaluated the affinity of test articles for the dopamine D2 receptor in transfected human embryonic kidney (HEK)-293 cells. For determining the binding in the D2S receptor assay, test article was incubated with 0.3 nM [^3H] methylspiperone or 1 nM [^3H] 7-hydroxy-2-N,N-dipropylaminotetralin (7-OH-DPAT). [^3H] Methylspiperone at 0.3 nM also was used as control ligand in the D2L binding assay. Cell membrane homogenates were incubated in duplicate at room temperature for 60 minutes with ligand in the absence or presence of test articles at 10 μM. After the incubation period, samples were filtered through glass fiber filters, the filters dried and then counted for radioactivity using a scintillation counter. Results are expressed as mean percent inhibition of control radioligand binding.
# [4] = Dynamic vapor sorption / hygroscopicity; format: physicochemical; conditions: for hygroscopicity: DVS, class by mass gain at 85% r.h.; for DVS mass increase: relative humidity from about 5% to about 95%
# Experimental: Projekt Messtechnik (now ProUmid) SPS11-100n. The sample was placed on an aluminum holder on top of a microbalance and allowed to equilibrate at 50% r.h. before starting one of the following pre-defined humidity programs (1 cycle): • hold 2 h at 50% r.h., • decrease humidity −5% r.h. h^−1 for 10 h (i.e., from 50% r.h. to 0% r.h.), • hold 5 h at […]., • increase humidity +5% r.h. h^−1 for 19 h (i.e., from 0% r.h. to 95% r.h.), • hold 5 h at 95% r.h., • decrease humidity −5% r.h. h^−1 for 9 h (i.e., from 95% r.h. to 50% r.h.), • hold 2 h at 50% r.h. or • hold 2 h at 50% r.h., • increase humidity +5% r.h. h^−1 for 9 h (i.e., from 50% r.h. to 95% r.h.), • hold 5 h at 95% r.h., • decrease humidity −5% r.h. h^−1 for 19 h (i.e., from 95% r.h. to 0% r.h.), • hold 5 h at 0% r.h., • increase humidity +5% r.h. h^−1 for 10 h (i.e., from 0% r.h. to 50% r.h.), • hold 2 h at 50% r.h.
# The hygroscopicity was classified based on the mass gain at 85% r.h. relative to the initial mass as follows: deliquescent (sufficient water adsorbed to form a liquid), very hygroscopic (mass increase of […]), hygroscopic (mass increase of <15% but ≥2%), slightly hygroscopic (mass increase of <2% but ≥0.2%), or non-hygroscopic (mass increase of <0.2%).
# [5] = Solubility of polymorphic forms in physiologically relevant media and final pH; format: physicochemical
# Excerpt: Solubility data of the several polymorphic forms of Compound 1 in physiologically relevant media and the final pH of these solutions are summarized in the following tables.
# [6] = Mechanical stressing (grinding, compression); format: physicochemical; conditions: ground with a mortar and pestle for 2 min
# Experimental: Mechanical stressing experiment: the following table describes three experiments involving mechanical stressing of Form A and/or Form B of free base Compound 1 by grinding with a mortar and pestle.
# Shear Sensitivity: Form K was compressed under 2000 psi for 1 minute and analyzed by XRPD.
# [7] = Solid state stability under accelerated storage conditions; format: physicochemical; conditions: for Chiral purity after storage: initial value 97.96 area %; for area % chemical purity after storage: initially 98.4%
# Experimental: Form A was not isolated directly as a wet cake but formed only upon drying of Form E in polymorphism studies. […] Small quantities of Form A were generated by dissolving a crude Compound 1 in MEK at high temperature, followed by fast cooling to room temperature, filtration and drying. DSC and TGA data were obtained for samples of Form A and following storage for 1 week at 60° C. and 60° C./75% RH. […] TGA analysis confirmed that this broad endotherm was most likely due to moisture uptake under the accelerated storage conditions. Most of the weight loss of 0.82% in this sample occurred in a single step at less than 75° C. By contrast, weigh loss was a two-step process at the initial time point. […] The residual solvent initially present in the sample was lost upon storage of the sample at 60° C. (0.13% weight loss between 25 to 150° C.).
# Form B could be obtained from a process involving methyl acetate. […] HPLC traces were taken of the samples of Form B and following storage for 2 week at 60° C. and 60° C./75% RH. […] Several small degradation products were seen to grow especially in the sample stored at 60° C. Chiral instability was also observed in the sample stored at 60° C./75% RH.
# Physical stability: Visually, all samples of Form K were white colored powder with no apparent change in color in the samples stored under accelerated conditions (40° C., 40° C./75% RH, 60° C., 60° C./75% RH and sample stored in light chamber in clear vials exposed to light and covered in aluminum foil) for 14 d relative to the sample stored refrigerated and under ambient conditions.
# Solid state chemical stability: HPLC analysis were performed on Form K samples stored under the accelerated stability conditions. […] Based on the HPLC analysis data, there is a measurable but small change in the chemical stability of Form K under the accelerated conditions of temperature, humidity and exposure to light over the 14 d period.
# Solid state chiral stability: Chiral stability of Form K samples stored under accelerated stability conditions was tested. There was ˜2.9% of the R-enantiomer (97.1 area % of the active S-isomer) in the initial sample. […]
# The chiral purity (area % of S-isomer) remained […] under the accelerated stability conditions.
# [8] = Competitive slurry and slurry stability experiments; format: physicochemical; conditions: aqueous slurry at room temperature, within 24 hr
# Experimental: Form B was obtained at room temperature while form C was obtained at 45° C. in acetone alone.
# The HBr salt was largely insoluble in various buffers when 1 mg/mL slurries were prepared and the mother liquor concentration determined (by HPLC): <0.05 mg/mL in all buffers tested.
smiles,measurement,setting,value
"O=C1CCC(N2Cc3c(OCc4ccc(CN5CCN(c6ccc(F)cc6F)CC5)cc4)cccc3C2=O)C(=O)N1 (racemic) [Compound A, 3-(4-((4-((4-(2,4-difluorophenyl)piperazin-1-yl)methyl)benzyl)oxy)-1-oxoisoindolin-2-yl)piperidine-2,6-dione, reference compound]",Adrenergic α1 % Inh. (@10 μM),[1],102%
"N#Cc1ccc(N2CCN(Cc3ccc(COc4cccc5c4CN([C@H]4CCC(=O)NC4=O)C5=O)cc3)CC2)c(F)c1 [Compound 1, (S)-4-(4-(4-(((2-(2,6-dioxopiperidin-3-yl)-1-oxoisoindolin-4-yl)oxy)methyl)benzyl)piperazin-1-yl)-3-fluorobenzonitrile]",Adrenergic α1 % Inh. (@10 μM),[1],67% and 62%
same,racemization on heating,"[2]; DSC heating, chiral HPLC, gradual between 160-218° C.",almost complete by 218 °C
same,chiral purity upon heating,"[2]; heated to 160° C., 97.1% initial",96.1 area %
same,inhibition at 10 µM,[3],55%
N#Cc1ccc(N2CCN(Cc3ccc(COc4cccc5c4CN([C@H]4CCC(=O)NC4=O)C5=O)cc3)CC2)c(F)c1 [Form A of a free base of Compound 1],hygroscopicity,[4]; listed as Form A,slightly hygroscopic (slightly hygroscopic (mass increase of <2% but ≥0.2%))
same,DVS mass increase,[4]; listed as Form A,about 2.4%
same,Solubility,"[5]; FeSSiF, listed as Form A",86 µg/mL
same,Solubility,"[5]; SGF with pepsin, listed as Form A",429 µg/mL
same,Solubility,"[5]; pH 1 buffer HC1/NaC1, listed as Form A",88 µg/mL
same,Solubility,"[5]; pH 3 buffer (phosphate), listed as Form A",280 µg/mL
same,Solubility,"[5]; pH 4 buffer (acetate), listed as Form A",159 µg/mL
same,Solubility,"[5]; pH 5 buffer (acetate), listed as Form A",8 µg/mL
same,Final pH,"[5]; solubility sample in FaSSIF, listed as Form A",6.44
same,Final pH,"[5]; solubility sample in FeSSiF, listed as Form A",5.05
same,Final pH,"[5]; solubility sample in SGF with pepsin, listed as Form A",1.34
same,Final pH,"[5]; solubility sample in Water, listed as Form A",6.77
same,Final pH,"[5]; solubility sample in pH 1 buffer HC1/NaC1, listed as Form A",1.14
same,Final pH,"[5]; solubility sample in pH 3 buffer (phosphate), listed as Form A",3.70
same,Final pH,"[5]; solubility sample in pH 4 buffer (acetate), listed as Form A",4.11
same,Final pH,"[5]; solubility sample in pH 5 buffer (acetate), listed as Form A",5.03
same,PXRD result after mechanical treatment,[6]; listed as Form A,no change in polymorphic form;
same,DSC trace after storage,[7]; 1 week at 60° C.,quite similar to the initial condition
same,"physical form after storage (DSC, TGA)",[7]; 1 week at 60° C./75% RH,changes in physical form were observed
N#Cc1ccc(N2CCN(Cc3ccc(COc4cccc5c4CN([C@H]4CCC(=O)NC4=O)C5=O)cc3)CC2)c(F)c1 [Form B of a free base of Compound 1],competitive slurry with Form C,[8],rapidly converted to Form C
same,hygroscopicity,[4]; listed as Form B,slightly hygroscopic (slightly hygroscopic (mass increase of <2% but ≥0.2%))
same,DVS mass increase,[4]; listed as Form B,about 3.1%
same,Solubility,"[5]; FeSSiF, listed as Form B",77 µg/mL
same,Solubility,"[5]; SGF with pepsin, listed as Form B",406 µg/mL
same,Solubility,"[5]; pH 1 buffer HC1/NaC1, listed as Form B",85 µg/mL
same,Solubility,"[5]; pH 3 buffer (phosphate), listed as Form B",125 µg/mL
same,Solubility,"[5]; pH 4 buffer (acetate), listed as Form B",115 µg/mL
same,Solubility,"[5]; pH 5 buffer (acetate), listed as Form B",7 µg/mL
same,Final pH,"[5]; solubility sample in FaSSIF, listed as Form B",6.43
same,Final pH,"[5]; solubility sample in FeSSiF, listed as Form B",5.03
same,Final pH,"[5]; solubility sample in SGF with pepsin, listed as Form B",1.29
same,Final pH,"[5]; solubility sample in Water, listed as Form B",6.46
same,Final pH,"[5]; solubility sample in pH 1 buffer HC1/NaC1, listed as Form B",1.09
same,Final pH,"[5]; solubility sample in pH 3 buffer (phosphate), listed as Form B",4.05
same,Final pH,"[5]; solubility sample in pH 4 buffer (acetate), listed as Form B",4.11
same,Final pH,"[5]; solubility sample in pH 5 buffer (acetate), listed as Form B",5.05
same,PXRD result after mechanical treatment,[6]; listed as Form B,no change in polymorphic form
same,Chiral purity after storage,[7]; 2 week at 60° C./75% RH,96.54 area %
same,area % chemical purity after storage,[7]; 2 week at 60° C./75% RH,97.92%
same,Chiral purity after storage,[7]; 2 week at 60° C.,remained unchanged
same,area % chemical purity after storage,[7]; 2 week at 60° C.,97.71%
same,colour after storage,"[7]; stored at 60° C., initially white to light brown",Color change was observed
N#Cc1ccc(N2CCN(Cc3ccc(COc4cccc5c4CN([C@H]4CCC(=O)NC4=O)C5=O)cc3)CC2)c(F)c1 [Form E of a free base of Compound 1],PXRD result after thermal treatment,"[2]; N2 flow, 200° C. held for several minutes, cooled quickly",racemate
same,solid form after DVS cycle,"[4]; after the DVS humidity cycle, listed as Form E",primarily amorphous material
